Columns and labels:
Smn protein = Smn protein assay in cultured cells (SMN HTRF); format: cell-based, human; settings: SMA patient fibroblast cells (GM03813), 48 hours; for maximum fold (Fold) increase of Smn protein: 7-point concentration data, relative to vehicle control; for EC1.5x for Smn protein expression: 7-point concentration curve, concentration producing 1.5 times Smn protein vs DMSO vehicle
Summary of the method: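 Smn protein measured by HTRF (anti-SMN d2/kryptate) in lysates of SMA patient fibroblasts after 48 h compound treatment, 7-point 3.16-fold dilutions, triplicates. The 665/620 nm ratio is blank-corrected to ΔF, then divided by the vehicle ΔF to give fold increase.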

[1] = test system: full length SMN2 minigene mRNA containing SMN2 exon 7; assay: SMN2 minigene mRNA splicing RT-qPCR assay in cultured cells; format: cell-based, human; settings: Homo sapiens, HEK293-H; HEK293H cells stably transfected with SMN2-A minigene, 24 hours, 7-point concentration curve; concentration giving 1.5-fold full length SMN2 mRNA vs vehicle; read-out: EC1.5x for production of full length SMN2 mRNA
Summary of the method: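 Read-out is minigene FL mRNA (exon 7 included) relative to vehicle, from efficiency-corrected ΔΔCt with GAPDH normalisation. Primers and probe span exon 7, exon 8 and luciferase, so endogenous SMN is not detected. Stable SMN2-A minigene HEK293H cells, 24 h compound exposure at 37 °C, 7-point curve in duplicate.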

Compound | maximum fold (Fold) increase of Smn protein (Smn protein) | EC (1.5-fold) [1] | melting point | EC1.5x for Smn protein expression (Smn protein)
CCOc1ccc(-c2cc3ccc(N4CCNCC4)cc3c(=O)o2)cc1 [Cpd 51, 3-(4-ethoxyphenyl)-7-(piperazin-1-yl)-1H-isochromen-1-one] | * (A maximum fold increase of ≦1.2 is indicated by one star (*)) | 1 to 3 µM | 245 °C (dec.) | –
COCCN1CCN(c2ccc3cc(-c4cn5cc(C)nc(C)c5n4)oc(=O)c3c2)C[C@H]1C [Cpd 145, 3-(6,8-dimethylimidazo[1,2-a]pyrazin-2-yl)-7-[(3R)-4-(2-methoxyethyl)-3-methylpiperazin-1-yl]-1H-isochromen-1-one] | ***** (a fold increase >1.65 is indicated by five stars (*****)) | ≤ 0.1 µM | 205 to 210 °C | **** (an EC1.5×≦0.3 nM is indicated by four stars (****))
CN1CCN(c2ccc3cc(-c4cn5ccccc5n4)oc(=O)c3c2)CC1 [Cpd 27, 3-(imidazo[1,2-a]pyridin-2-yl)-7-(4-methylpiperazin-1-yl)-1H-isochromen-1-one] | * (A maximum fold increase of ≦1.2 is indicated by one star (*)) | 3 to 30 µM | 252 to 254 °C | –
O=c1oc(-c2cc(F)cc(F)c2)cc2ccc(N3CCNCC3)cc12 [Cpd 14, 3-(3,5-difluorophenyl)-7-(piperazin-1-yl)-1H-isochromen-1-one] | ** (a fold increase between >1.2 and ≦1.35 is indicated by two stars (**)) | 1 to 3 µM | 200 to 202 °C | –
Cc1cn2cc(-c3cc4ccc(C5CCN(C(C)C)CC5)cc4c(=O)o3)nc2c(C)n1 [Cpd 117, 3-(6,8-dimethylimidazo[1,2-a]pyrazin-2-yl)-7-[1-(propan-2-yl)piperidin-4-yl]-1H-isochromen-1-one] | ***** (a fold increase >1.65 is indicated by five stars (*****)) | ≤ 0.1 µM | 227 to 229 °C | *** (an EC1.5× between >0.3 nM and ≦1 nM is indicated by three stars (***))
Cc1cn2cc(-c3cc4ccc(C5=CCN(C6CC6)CC5)cc4c(=O)o3)nc2c(C)n1 [Cpd 93, 7-(1-cyclopropyl-1,2,3,6-tetrahydropyridin-4-yl)-3-(6,8-dimethylimidazo[1,2-a]pyrazin-2-yl)-1H-isochromen-1-one] | ***** (a fold increase >1.65 is indicated by five stars (*****)) | ≤ 0.1 µM | 230 to 232 °C | **** (an EC1.5×≦0.3 nM is indicated by four stars (****))
CCN1CCN(c2ccc3cc(-c4cn5cc(C)ncc5n4)oc(=O)c3c2)C[C@@H]1C [Cpd 120, 7-[(3S)-4-ethyl-3-methylpiperazin-1-yl]-3-(6-methylimidazo[1,2-a]pyrazin-2-yl)-1H-isochromen-1-one] | ***** (a fold increase >1.65 is indicated by five stars (*****)) | ≤ 0.1 µM | 255 to 260 °C | **** (an EC1.5×≦0.3 nM is indicated by four stars (****))
Cc1nc(Cl)cn2cc(-c3cc4ccc(N5CCN(C(C)C)CC5)cc4c(=O)o3)nc12 [Cpd 101, 3-(6-chloro-8-methylimidazo[1,2-a]pyrazin-2-yl)-7-[4-(propan-2-yl)piperazin-1-yl]-1H-isochromen-1-one] | ***** (a fold increase >1.65 is indicated by five stars (*****)) | 0.1 to 0.3 µM | 286 to 291 °C | *** (an EC1.5× between >0.3 nM and ≦1 nM is indicated by three stars (***))
Cc1cn2cc(-c3cc4ccc(N5CCN(C(C)C)CC5)cc4c(=O)o3)nc2cn1 [Cpd 128, 3-(6-methylimidazo[1,2-a]pyrazin-2-yl)-7-[4-(propan-2-yl)piperazin-1-yl]-1H-isochromen-1-one] | ***** (a fold increase >1.65 is indicated by five stars (*****)) | ≤ 0.1 µM | 231 to 236 °C | **** (an EC1.5×≦0.3 nM is indicated by four stars (****))
O=c1oc(-c2cn3ccccc3n2)cc2ccc(N3CCNCC3)cc12 [Cpd 26, 3-(imidazo[1,2-a]pyridin-2-yl)-7-(piperazin-1-yl)-1H-isochromen-1-one] | * (A maximum fold increase of ≦1.2 is indicated by one star (*)) | 1 to 3 µM | 248 °C (dec.) | –
COc1ccccc1-c1cc2ccc(N3CCN[C@@H](C)C3)cc2c(=O)o1 [Cpd 32, 3-(2-methoxyphenyl)-7-[(3S)-3-methylpiperazin-1-yl]-1H-isochromen-1-one] | ** (a fold increase between >1.2 and ≦1.35 is indicated by two stars (**)) | 0.3 to 1 µM | 143 to 146 °C | –
Cc1cn2cc(-c3cc4ccc(C5=CCN(C)CC5)cc4c(=O)o3)nc2c(C)n1 [Cpd 89, 3-(6,8-dimethylimidazo[1,2-a]pyrazin-2-yl)-7-(1-methyl-1,2,3,6-tetrahydropyridin-4-yl)-1H-isochromen-1-one] | **** (a fold increase between >1.5 and ≦1.65 is indicated by four stars (****)) | ≤ 0.1 µM | 240 to 242 °C | **** (an EC1.5×≦0.3 nM is indicated by four stars (****))
C[C@H]1CN(c2ccc3cc(-c4cccc(OC(F)F)c4)oc(=O)c3c2)CCN1 [Cpd 53, 3-[3-(difluoromethoxy)phenyl]-7-[(3S)-3-methylpiperazin-1-yl]-1H-isochromen-1-one] | ** (a fold increase between >1.2 and ≦1.35 is indicated by two stars (**)) | 0.3 to 1 µM | 132 to 134 °C | –
CCN1CC=C(c2ccc3cc(-c4cn5cc(C)nc(C)c5n4)oc(=O)c3c2)CC1 [Cpd 90, 3-(6,8-dimethylimidazo[1,2-a]pyrazin-2-yl)-7-(1-ethyl-1,2,3,6-tetrahydropyridin-4-yl)-1H-isochromen-1-one] | ***** (a fold increase >1.65 is indicated by five stars (*****)) | ≤ 0.1 µM | 227 to 229 °C | **** (an EC1.5×≦0.3 nM is indicated by four stars (****))
Cc1cn2cc(-c3cc4ccc(N5CCN(C)[C@H](C)C5)cc4c(=O)o3)nc2cn1 [Cpd 127, 7-[(3R)-3,4-dimethylpiperazin-1-yl]-3-(6-methylimidazo[1,2-a]pyrazin-2-yl)-1H-isochromen-1-one] | ***** (a fold increase >1.65 is indicated by five stars (*****)) | ≤ 0.1 µM | 243 to 248 °C | **** (an EC1.5×≦0.3 nM is indicated by four stars (****))
O=c1oc(-c2cn3ccsc3n2)cc2ccc(N3CCNCC3)cc12 [Cpd 28, 3-(imidazo[2,1-b][1,3]thiazol-6-yl)-7-(piperazin-1-yl)-1H-isochromen-1-one] | *** (a fold increase between >1.35 and ≦1.5 is indicated by three stars (***)) | 0.3 to 1 µM | 224 to 226 °C | –

— patent publication US9399649B2, “Compounds for treating spinal muscular atrophy” (PTC Therapeutics Inc., priority 2012, dated 2016)
